Assay results: paper PMC7391767, “Molecular mechanisms underlying menthol binding and activation of TRPM8 ion channel” (Nature Communications, 2020)
Values joined by “and” are separate entries in the source; they are usually repeats but may differ in a detail not shown here. Identical values can stand only once.

Key:
Assay type in all cases: cell-based
Set-up in all cases: Shifts in ANAP emission, Ave: unit: nm
ANAP-incorporated TRPM8 [1] = biological target: T1, ANAP-incorporated TRPM8 (Mus musculus, UniProt Q8R4D5, F872X); settings: ANAP incorporation site F872
T1 construct: expressed in transfected cells; host or cells: HEK293 cells, co-transfected with the pANAP vector
Protocol: (§1) As fluorescence emission peak of ANAP shifts to a longer wavelength in more hydrophilic environment, we measured the shift in ANAP emission peak to report conformational changes. Fluorescence properties of ANAP may also be affected by other factors such as temperature and pH[31], so we performed our ANAP experiments always at room temperature (22 ± 1°C). To control for changes in solution pH, we added 3 mM HEPES in ANAP imaging solution to buffer the pH at 7.2. We genetically integrated ANAP into a specific site on TRPM8 with special tRNA and synthetase encoded by pANAP vector (Fig. 5d).
(§2) L-ANAP methyl ester was purchased from AsisChem. pANAP vector was purchased from Addgene. ANAP was incorporated into TRPM8 by introducing a TAG amber stop codon mutation as previously reported. Briefly, after co-transfection of both TRPM8 and pANAP vectors, ANAP was directly added to the culture medium to the final concentration of 20 µM. After 1–2 days, ANAP-containing culture medium was completely changed. Cells were further cultured in ANAP-free medium overnight before experiments.
(§3) ANAP fluorescence was excited by the Ar laser with a 375/28 excitation filter, a T400lp dichroic mirror, and a 435LP emission filter on an inverted fluorescence microscope (Nikon TE2000-U) using a ×40 oil-immersion objective (NA 1.3). Emission spectrum of ANAP was imaged with an Acton SpectraPro 2150i spectrograph in conjunction with an optiMOS CCD camera (Qimaging, USA). We determined the ANAP emission peak value by fitting the emission spectrum with a skewed Gauss distribution in Igor Pro version 6.1 (WaveMatrix), and then the difference in emission peak values measured in the absence and presence of menthol was reported as the shift of ANAP emission.

ANAP-incorporated TRPM8 [2] = biological target: T2, ANAP-incorporated TRPM8 (Mus musculus, UniProt Q8R4D5, I865X); settings: ANAP incorporation site I865
T2 construct: expressed in transfected cells; host or cells: HEK293 cells, co-transfected with the pANAP vector
Protocol: as §1, §2, §3

ANAP-incorporated TRPM8 [3] = biological target: T3, ANAP-incorporated TRPM8 (Mus musculus, UniProt Q8R4D5, L817X); settings: ANAP incorporation site L817; average shift, menthol activated vs resting state
T3 construct: expressed in transfected cells; host or cells: HEK293 cells, co-transfected with the pANAP vector
Protocol: as §1, §2, §3

ANAP-incorporated TRPM8 [4] = biological target: T4, ANAP-incorporated TRPM8 (Mus musculus, UniProt Q8R4D5, L864X); settings: ANAP incorporation site L864
T4 construct: expressed in transfected cells; host or cells: HEK293 cells, co-transfected with the pANAP vector
Protocol: as §1, §2, §3

ANAP-incorporated TRPM8 [5] = biological target: T5, ANAP-incorporated TRPM8 (Mus musculus, UniProt Q8R4D5, L943X); settings: ANAP incorporation site L943
T5 construct: expressed in transfected cells; host or cells: HEK293 cells, co-transfected with the pANAP vector
Protocol: as §1, §2, §3

ANAP-incorporated TRPM8 [6] = biological target: T6, ANAP-incorporated TRPM8 (Mus musculus, UniProt Q8R4D5, N821X); settings: ANAP incorporation site N821
T6 construct: expressed in transfected cells; host or cells: HEK293 cells, co-transfected with the pANAP vector
Protocol: as §1, §2, §3

ANAP-incorporated TRPM8 [7] = biological target: T7, ANAP-incorporated TRPM8 (Mus musculus, UniProt Q8R4D5, N947X); settings: ANAP incorporation site N947
T7 construct: expressed in transfected cells; host or cells: HEK293 cells, co-transfected with the pANAP vector
Protocol: as §1, §2, §3

ANAP-incorporated TRPM8 [8] = biological target: T8, ANAP-incorporated TRPM8 (Mus musculus, UniProt Q8R4D5, P734X); settings: ANAP incorporation site P734; average shift, menthol activated vs resting state
T8 construct: expressed in transfected cells; host or cells: HEK293 cells, co-transfected with the pANAP vector
Protocol: as §1, §2, §3

ANAP-incorporated TRPM8 [9] = biological target: T9, ANAP-incorporated TRPM8 (Mus musculus, UniProt Q8R4D5, S823X); settings: ANAP incorporation site S823
T9 construct: expressed in transfected cells; host or cells: HEK293 cells, co-transfected with the pANAP vector
Protocol: as §1, §2, §3

ANAP-incorporated TRPM8 [10] = biological target: T10, ANAP-incorporated TRPM8 (Mus musculus, UniProt Q8R4D5, S824X)
T10 construct: expressed in transfected cells; host or cells: HEK293 cells, co-transfected with the pANAP vector
Protocol: as §1, §2, §3

ANAP-incorporated TRPM8 [11] = biological target: T11, ANAP-incorporated TRPM8 (Mus musculus, UniProt Q8R4D5, S921X); settings: ANAP incorporation site S921
T11 construct: expressed in transfected cells; host or cells: HEK293 cells, co-transfected with the pANAP vector
Protocol: as §1, §2, §3

ANAP-incorporated TRPM8 [12] = biological target: T12, ANAP-incorporated TRPM8 (Mus musculus, UniProt Q8R4D5, T795X); settings: ANAP incorporation site T795; average shift, menthol activated vs resting state
T12 construct: expressed in transfected cells; host or cells: HEK293 cells, co-transfected with the pANAP vector
Protocol: as §1, §2, §3

ANAP-incorporated TRPM8 [13] = biological target: T13, ANAP-incorporated TRPM8 (Mus musculus, UniProt Q8R4D5, V876X); settings: ANAP incorporation site V876
T13 construct: expressed in transfected cells; host or cells: HEK293 cells, co-transfected with the pANAP vector
Protocol: as §1, §2, §3

ANAP-incorporated TRPM8 [14] = biological target: T14, ANAP-incorporated TRPM8 (Mus musculus, UniProt Q8R4D5, W898X); settings: ANAP incorporation site W898
T14 construct: expressed in transfected cells; host or cells: HEK293 cells, co-transfected with the pANAP vector
Protocol: as §1, §2, §3

ANAP-incorporated TRPM8 [15] = biological target: T15, ANAP-incorporated TRPM8 (Mus musculus, UniProt Q8R4D5, W954X); settings: ANAP incorporation site W954, menthol activated vs resting state
T15 construct: expressed in transfected cells; host or cells: HEK293 cells, co-transfected with the pANAP vector
Protocol: as §1, §2, §3

[16] = average shift, menthol activated vs resting state
[17] = menthol activated vs resting state, single measurement

Compound: CC(C)[C@@H]1CC[C@@H](C)C[C@H]1O [menthol, (−)-menthol]
- Shifts_ave (ANAP-incorporated TRPM8 [1]; [16]): 0.53 nm
- Emission Peak at menthol activated state (ANAP-incorporated TRPM8 [1]; single measurement): 477.57 nm and 487.64 nm and 475.42 nm and 485.75 nm and 480.39 nm
- Shifts_ave (ANAP-incorporated TRPM8 [2]; [16]): 0.00167 nm
- Emission Peak at menthol activated state (ANAP-incorporated TRPM8 [2]; single measurement): 471.49 nm and 482.04 nm and 478.09 nm and 488.42 nm and 478.8 nm and 481.12 nm
- Shifts_ave (ANAP-incorporated TRPM8 [3]): 0.801 nm
- Shifts_ave (ANAP-incorporated TRPM8 [4]; [16]): 1.37 nm
- Shifts in emission (ANAP-incorporated TRPM8 [4]; [17]): 1.34 nm and 1.42 nm and 1.82 nm and 1.04 nm and 1.21 nm
- Emission Peak at menthol activated state (ANAP-incorporated TRPM8 [4]; single measurement): 481.75 nm and 488.11 nm and 492.24 nm and 485.58 nm and 489.77 nm
- Shifts_ave (ANAP-incorporated TRPM8 [5]; [16]): -0.71 nm
- Emission Peak at menthol activated state (ANAP-incorporated TRPM8 [5]; single measurement): 476.85 nm and 475.15 nm and 483.93 nm and 482.35 nm and 475.81 nm and 479.5 nm
- Shifts_ave (ANAP-incorporated TRPM8 [6]; [16]): 0.50 nm
- Emission Peak at menthol activated state (ANAP-incorporated TRPM8 [6]; single measurement): 493.6 nm
- Shifts_ave (ANAP-incorporated TRPM8 [7]; [16]): 0.33 nm
- Emission Peak at menthol activated state (ANAP-incorporated TRPM8 [7]; single measurement): 485.99 nm and 482.4 nm and 486.05 nm and 485.2 nm and 481.1 nm
- Shifts_ave (ANAP-incorporated TRPM8 [8]): 1.477 nm
- Shifts_ave (ANAP-incorporated TRPM8 [9]; [16]): 0.97 nm
- Emission Peak at menthol activated state (ANAP-incorporated TRPM8 [9]; single measurement): 488.83 nm and 484.77 nm and 484.58 nm and 485.28 nm
- Shifts in ANAP emission, Ave (ANAP-incorporated TRPM8 [10]; ANAP at S824): 2.89
- Shifts_ave (ANAP-incorporated TRPM8 [10]; ANAP incorporation site S824, average shift, menthol activated vs resting state): 2.90 nm
- Emission Peak at menthol activated state (ANAP-incorporated TRPM8 [10]; ANAP incorporation site S824, single measurement): 488.12 nm and 482.56 nm and 490.74 nm
- Shifts_ave (ANAP-incorporated TRPM8 [11]; [16]): 1.07 nm
- Shifts in emission (ANAP-incorporated TRPM8 [11]; [17]): 1.34 nm and 1.13 nm and 1.09 nm and 0.99 nm and 0.8 nm
- Emission Peak at menthol activated state (ANAP-incorporated TRPM8 [11]; single measurement): 493.48 nm and 489.7 nm and 490.23 nm and 494.29 nm and 493.18 nm
- Shifts_ave (ANAP-incorporated TRPM8 [12]): 1.996 nm
- Shifts_ave (ANAP-incorporated TRPM8 [13]; [16]): 0.71 nm
- Emission Peak at menthol activated state (ANAP-incorporated TRPM8 [13]; single measurement): 481.62 nm and 479.21 nm and 478.64 nm and 484.51 nm and 491.43 nm
- Shifts_ave (ANAP-incorporated TRPM8 [14]; [16]): -1.33 nm
- Emission Peak at menthol activated state (ANAP-incorporated TRPM8 [14]; single measurement): 483.12 nm and 481.69 nm and 486.71 nm and 481.28 nm
- Shifts_ave (ANAP-incorporated TRPM8 [15]; average shift): 1.45 nm
- Shifts in emission (ANAP-incorporated TRPM8 [15]; single measurement): 1.59 nm and 1.14 nm and 1.76 nm and 1.68 nm and 1.08 nm
